Reference: patent publication US20260132127A1, “NOVEL SPIRO COMPOUND” (MITSUBISHI TANABE PHARMA CORPORATION, priority 2021, published 2026)

Target: T1, human TRH-DE (Homo sapiens, UniProt Q9UKU6)
T1 construct: expressed in transfected cells; host or cells: Expi 293 cells (transient expression), membrane fraction
T1 sequence (Q9UKU6 1-1069): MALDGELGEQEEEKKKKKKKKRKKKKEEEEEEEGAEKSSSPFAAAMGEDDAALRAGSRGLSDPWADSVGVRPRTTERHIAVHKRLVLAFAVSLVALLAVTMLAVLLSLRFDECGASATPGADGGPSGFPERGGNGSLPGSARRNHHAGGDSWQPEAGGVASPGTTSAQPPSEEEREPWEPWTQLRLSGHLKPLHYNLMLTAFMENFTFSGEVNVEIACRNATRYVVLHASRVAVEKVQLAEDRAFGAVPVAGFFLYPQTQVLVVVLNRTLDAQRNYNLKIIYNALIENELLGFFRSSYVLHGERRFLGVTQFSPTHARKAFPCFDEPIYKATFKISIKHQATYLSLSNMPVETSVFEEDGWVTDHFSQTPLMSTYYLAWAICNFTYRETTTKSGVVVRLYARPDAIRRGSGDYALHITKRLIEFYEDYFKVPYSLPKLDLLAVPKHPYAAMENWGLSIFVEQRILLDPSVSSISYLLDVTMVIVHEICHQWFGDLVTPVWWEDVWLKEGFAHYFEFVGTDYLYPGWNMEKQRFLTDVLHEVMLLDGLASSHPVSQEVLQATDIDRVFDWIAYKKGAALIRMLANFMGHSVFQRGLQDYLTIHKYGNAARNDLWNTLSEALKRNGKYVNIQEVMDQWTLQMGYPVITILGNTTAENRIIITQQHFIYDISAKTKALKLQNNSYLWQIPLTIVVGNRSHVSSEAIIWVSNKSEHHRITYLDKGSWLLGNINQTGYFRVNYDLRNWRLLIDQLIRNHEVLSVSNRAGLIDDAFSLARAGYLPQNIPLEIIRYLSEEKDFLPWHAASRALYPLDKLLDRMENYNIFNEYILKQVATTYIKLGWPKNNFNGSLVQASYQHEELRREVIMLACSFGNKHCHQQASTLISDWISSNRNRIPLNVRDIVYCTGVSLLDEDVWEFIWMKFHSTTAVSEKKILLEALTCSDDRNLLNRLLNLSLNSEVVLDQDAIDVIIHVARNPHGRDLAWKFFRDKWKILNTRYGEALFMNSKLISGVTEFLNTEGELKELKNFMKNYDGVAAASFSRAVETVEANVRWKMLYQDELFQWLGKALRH
Assay: TRH-DE inhibition test (RapidFire MS measurement of product Cyclo (His-Pro))
Format: biochemical
Settings: membrane fraction of Expi 293 cells expressing human TRH-DE; 10 μM TRH substrate; room temperature, 2 hours; 16-point concentration test
Method in brief: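 Membrane fraction from Expi 293 cells transiently expressing human TRH-DE, at 4 μg/ml in phosphate buffer pH 7.4 with 200 μM bacitracin, reacted with compound and 10 μM substrate for 2 h at room temperature. Cyclo(His-Pro) measured by RapidFire MS against an isotope internal standard. IC50 from 16-point curves.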

CC1COc2ncccc2C(=O)N1C1CC2(C1)CN(S(=O)(=O)c1ccccc1F)C2 (racemic) [Example 63] showed an IC50 of 22 nM.

CC1COc2ncccc2C(=O)N1C1CC2(C1)CN(S(=O)(=O)c1cccs1)C2 (racemic) [Example 81] showed an IC50 of 670 nM.

In the case of C[C@@H]1COc2cc(N(C)C3CCCC3)ncc2C(=O)N1C1CC2(C1)CN(S(=O)(=O)c1ccccc1F)C2 [Example 137], the IC50 is reported as 1 nM.

In the case of COC1CCN(c2cc3c(cn2)C(=O)N(C2CC4(C2)CN(S(=O)(=O)c2ccccc2F)C4)[C@H](C)CO3)CC1 [Example 154], the IC50 is reported as 2 nM.

Compound C[C@@H]1COc2nc(O[C@@H]3CCOC3)ncc2C(=O)N1C1CC2(C1)CN(S(=O)(=O)c1ccccc1F)C2 [Example 376] has an IC50 of 21 nM.

In the case of COCCC(=O)N1CC[C@@H](C)N(C2CC3(C2)CN(S(=O)(=O)c2ccccc2F)C3)C(=O)C1 [Example 453], the IC50 is reported as 348 nM.

C[C@@H]1CCn2nc(C(C)(F)F)cc2C(=O)N1C1CC2(C1)CN(S(=O)(=O)c1ccccc1F)C2 [Example 187] showed an IC50 of 20 nM.

In the case of C[C@@H]1COc2c(cnn2CC(F)F)C(=O)N1C1CC2(C1)CN(S(=O)(=O)c1ccccc1F)C2 [Example 200], the IC50 is reported as 19 nM.

For C[C@@H]1COc2cc(N3CC[C@H](F)C3)ncc2C(=O)N1C1CC2(C1)CN(S(=O)(=O)c1ccccc1F)C2 [Example 143], the IC50 was 1 nM.

Cc1ccnc2c1C(=O)N(C1CC3(C1)CN(S(=O)(=O)c1ccccc1F)C3)C(C)CO2 (racemic) [Example 29] showed an IC50 of 50 nM.

C[C@@H]1COc2nc(N3C[C@H]4C[C@H]4C3)ncc2C(=O)N1C1CC2(C1)CN(S(=O)(=O)c1ccccc1F)C2 (relative stereo) [Example 168, (7R)-2-[(1S*,5R*)-3-azabicyclo[3.1.0]hexan-3-yl]-6-[2-(2-fluorophenyl)sulfonyl]-2-azaspiro[3.3]heptan-6-yl]-7-methyl-7,8-dihydropyrimido[5,4-f][1,4]oxazepin-5-one] showed an IC50 of 2 nM.

With CCC1COc2cccnc2C(=O)N1C1CC2(C1)CN(S(=O)(=O)c1ccccc1F)C2 (racemic) [Example 50] the IC50 was 19 nM.

C[C@@H]1COc2cc(C(F)(F)F)cnc2C(=O)N1C1CC2(C1)CN(S(=O)(=O)c1ccccc1F)C2 [Example 337] gave an IC50 of 2 nM.

CC1c2ccc(F)cc2C(=O)N1C1CC2(C1)CN(S(=O)(=O)c1ccccc1F)C2 (racemic) [Example 270] showed an IC50 of 189 nM.

Work on CCCN(C(=O)c1cccnc1OC)C1CC2(C1)CN(S(=O)(=O)c1ccccc1)C2 [Example 423, N-[2-(benzenesulfonyl)-2-azaspiro[3.3]heptan-6-yl]-2-methoxy-N-propylpyridine-3-carboxamide] yielded an IC50 of 974 nM.

With C[C@@H]1COc2cc(N3CC[C@@H](F)C3)ncc2C(=O)N1C1CC2(C1)CN(S(=O)(=O)c1ccccc1F)C2 [Example 144] the IC50 was 1 nM.

Compound C[C@@H]1COc2cc(F)cnc2C(=O)N1C1CC2(C1)CN(S(=O)(=O)c1ccccc1F)C2 [Example 11] has an IC50 of 4 nM.

Work on C[C@@H]1CNc2nc(Cl)ccc2C(=O)N1C1CC2(C1)CN(S(=O)(=O)c1ccccc1F)C2 [Example 251, (3R)-8-chloro-4-[2-(2-fluorophenyl)sulfonyl-2-azaspiro[3.3]heptan-6-yl]-3-methyl-2,3-dihydro-1H-pyrido[2,3-e][1,4]diazepin-5-one] yielded an IC50 of 1 nM.

CC1CCCCC(=O)N1C1CC2(C1)CN(S(=O)(=O)c1ccccc1F)C2 (stereo not drawn) [Example 459, 1-[2-(2-fluorophenyl)sulfonyl-2-azaspiro[3.3]heptan-6-yl]-7-methylazepan-2-one] was tested, and the IC50 was 176 nM.

Work on Cc1nc(C2CC2)n2c1C(=O)N(C1CC3(C1)CN(S(=O)(=O)c1ccccc1F)C3)[C@H](C)CC2 [Example 323] yielded an IC50 of 103 nM.

Work on CO[C@@H]1CCN(c2ncc3c(n2)OC[C@@H](C)N(C2CC4(C2)CN(S(=O)(=O)c2ccccc2F)C4)C3=O)C1 [Example 394] yielded an IC50 of 4 nM.

With Cc1onc2c1OC[C@@H](C)N(C1CC3(C1)CN(S(=O)(=O)c1ccccc1F)C3)C2=O [Example 324] the IC50 was 37 nM.

In the case of CC1(O)c2ccccc2C(=O)N1C1CC2(C1)CN(S(=O)(=O)c1ccccc1F)C2 (stereo not drawn) [Example 283, 2-[2-(2-fluorophenyl)sulfonyl-2-azaspiro[3.3]heptan-6-yl]-3-hydroxy-3-methyl-isoindolin-1-one], the IC50 is reported as 67 nM.

For CCc1ncc2c(n1)OC[C@@H](C)N(C1CC3(C1)CN(S(=O)(=O)c1ccccc1F)C3)C2=O [Example 368], the IC50 was 13 nM.

For COc1cc2c(cn1)C(=O)N(C1CC3(C1)CN(S(=O)(=O)c1ccccc1F)C3)[C@H](C)CO2 [Example 165], the IC50 was 2 nM.

With CC1Cc2cc(C(F)(F)F)ncc2C(=O)N1C1CC2(C1)CN(S(=O)(=O)c1ccccc1F)C2 (stereo not drawn) [Example 343, 2-[2-(2-fluorophenyl)sulfonyl-2-azaspiro[3.3]heptan-6-yl]-3-methyl-6-(trifluoromethyl)-3,4-dihydro-2,7-naphthyridin-1-one] the IC50 was 18 nM.

In the case of C[C@@H]1CCN2CCOC[C@@H]2C(=O)N1C1CC2(C1)CN(S(=O)(=O)c1ccccc1F)C2 [Example 172], the IC50 is reported as 110 nM.

CC1COc2ncc(F)cc2C(=O)N1C1CC2(C1)CN(S(=O)(=O)c1ccccc1F)C2 (racemic) [Example 26] was tested, and the IC50 was 33 nM.

With C[C@@H]1CCn2nc3c(c2C(=O)N1C1CC2(C1)CN(S(=O)(=O)c1ccccc1F)C2)CCC3 [Example 198] the IC50 was 14 nM.

In the case of C[C@@H]1CCn2c(nnc2C(C)(C)C)C(=O)N1C1CC2(C1)CN(S(=O)(=O)c1ccccc1F)C2 [Example 262], the IC50 is reported as 91 nM.

With C[C@@H]1CCN2CCC[C@H]2C(=O)N1C1CC2(C1)CN(S(=O)(=O)c1ccccc1F)C2 [Example 221] the IC50 was 988 nM.

Work on C[C@@H]1COc2cc(N3CCC(F)(F)CC3)ncc2C(=O)N1C1CC2(C1)CN(S(=O)(=O)c1ccccc1F)C2 [Example 156] yielded an IC50 of 2 nM.

In the case of C[C@@H]1CCn2nc(F)c(C3CC3)c2C(=O)N1C1CC2(C1)CN(S(=O)(=O)c1ccccc1F)C2 [Example 320], the IC50 is reported as 72 nM.

Compound Cc1cnc2c(c1)C(C)(O)N(C1CC3(C1)CN(S(=O)(=O)c1ccccc1F)C3)C2=O (racemic) [Example 280] has an IC50 of 89 nM.

For CC1CCNC(=O)N1C1CC2(C1)CN(S(=O)(=O)c1ccccc1F)C2 (stereo not drawn) [Example 434, 1-[2-(2-fluorophenyl)sulfonyl-2-azaspiro[3.3]heptan-6-yl]-6-methyl-1,3-diazinan-2-one], the IC50 was 279 nM.

Compound Cc1ccc(F)c(S(=O)(=O)N2CC3(CC(N4C(=O)c5ccccc5C4(C)O)C3)C2)c1 (racemic) [Example 287] has an IC50 of 90 nM.

In the case of C[C@H]1COc2nc(C3(F)CC3)sc2C(=O)N1C1CC2(C1)CN(S(=O)(=O)c1ccccc1F)C2 [Example 182], the IC50 is reported as 154 nM.

C[C@@H]1COc2ncccc2C(=O)N1C1CC2(C1)CN(S(=O)(=O)c1ccccc1F)C2 [Example 38] showed an IC50 of 12 nM.

For CCCC(=O)N1C[C@@H](C)N(C2CC3(C2)CN(S(=O)(=O)c2ccccc2F)C3)C(=O)c2ncccc21 [Example 304], the IC50 was 1070 nM.

In the case of C[C@@H]1COc2nc(N3CCCOCC3)ncc2C(=O)N1C1CC2(C1)CN(S(=O)(=O)c1ccccc1F)C2 [Example 384], the IC50 is reported as 5 nM.

Compound Cc1ccc2c(n1)OC[C@@H](C)N(C1CC3(C1)CN(S(=O)(=O)c1ccccc1F)C3)C2=O [Example 314] has an IC50 of 9 nM.

Compound CC1COc2cc(F)cnc2C(=O)N1C1CC2(C1)CN(S(=O)(=O)c1ccccc1F)C2 (racemic) [Example 10] has an IC50 of 12 nM.

In the case of C[C@@H]1CCn2nc(C3CC3)c(F)c2C(=O)N1C1CC2(C1)CN(S(=O)(=O)c1ccccc1F)C2 [Example 197], the IC50 is reported as 13 nM.

In the case of C[C@@H]1COc2nc([C@@H]3C[C@@H]3F)sc2C(=O)N1C1CC2(C1)CN(S(=O)(=O)c1ccccc1F)C2 [Example 236, (6R)-2-[(1R,2S)-2-fluorocyclopropyl]-7-[2-(2-fluorophenyl)sulfonyl-2-azaspiro[3.3]heptan-6-yl]-6-methyl-5,6-dihydrothiazolo[5,4-f][1,4]oxazepin-8-one], the IC50 is reported as 2 nM.

With CCn1c2ccccc2c(=O)n1C1CC2(C1)CN(S(=O)(=O)c1cc(C)ccc1F)C2 [Example 69] the IC50 was 66 nM.

CC1(O)c2cc(F)ccc2C(=O)N1C1CC2(C1)CN(S(=O)(=O)c1ccccc1F)C2 (racemic) [Example 276] showed an IC50 of 74 nM.

CC1COc2c(F)cncc2C(=O)N1C1CC2(C1)CN(S(=O)(=O)c1ccccc1F)C2 (racemic) [Example 21] gave an IC50 of 16 nM.

C[C@@H]1COc2nc(C(C)(F)F)sc2C(=O)N1C1CC2(C1)CN(S(=O)(=O)c1ccccc1F)C2 [Example 178] was tested, and the IC50 was 12 nM.
